Values of other authors in US12233205B2, “Thermal modulation of an inhalable medicament” (priority 2014, dated 2025).
Where two headings read alike, the source gives them in different places.

Molecule	bioavailability (administered PO)	also measured
[H]/N=C(\N/C(=N/[H])NCCCCCCNC(=N)NC(=N)Nc1ccc(Cl)cc1)Nc1ccc(Cl)cc1 [Chlorhexidine]	around 4%	
Penicillin G, V	30-80%	
NNC(=O)c1ccncc1 [Isoniazid]	around 90%	
CNC[C@H](O)c1cccc(O)c1 [Phenylephrine]	around 38%	
COc1cccc(C2(O)CCCCC2CN(C)C)c1 (stereo not shown) [Tramadol]	75-95%	
Gentamicin	negligible	bioavailability (administered IV): around 100%
CCOC(=O)C1(c2ccccc2)CCN(C)CC1 [Meperidine]		bioavailability (in vivo, im): around 57%
C[C@@H](O)[C@H]1C(=O)N2C(C(=O)O)=C(S[C@@H]3CN[C@H](C(=O)Nc4cccc(C(=O)O)c4)C3)[C@H](C)[C@H]12 [Ertapenem]		bioavailability (administered IV): around 90%
CN[C@H](CC(C)C)C(=O)N[C@H]1C(=O)N[C@@H](CC(N)=O)C(=O)N[C@H]2C(=O)N[C@H]3C(=O)N[C@H](C(=O)N[C@H](C(=O)O)c4cc(O)cc(O)c4-c4cc3ccc4O)[C@H](O)c3ccc(c(Cl)c3)Oc3cc2cc(c3O[C@@H]2O[C@H](CO)[C@@H](O)[C@H](O)[C@H]2O[C@H]2C[C@](C)(N)[C@H](O)[C@H](C)O2)Oc2ccc(cc2Cl)[C@H]1O [Vancomycin]	negligible	
Nc1nc(NC2CC2)c2ncn([C@H]3C=C[C@@H](CO)C3)c2n1 [Abacavir]	around 83%	bioavailability (administered IV): 61-89%
CNS(=O)(=O)Cc1ccc2[nH]cc(CCN(C)C)c2c1 [Sumatriptan]		bioavailability (administered as a nasal spray): around 25%
NC(=O)c1ncn([C@@H]2O[C@H](CO)[C@@H](O)[C@H]2O)n1 [Ribavirin]	around 64%	
CN(C)C(=O)Oc1cccc([N+](C)(C)C)c1 [Neostigmine]	1-2%	
Cc1ccnc2c1NC(=O)c1cccnc1N2C1CC1 [Nevirapine]	80-94%	
CC(=O)Oc1ccccc1C(=O)O [Aspirin]	61-80%	
Cc1nnc(SCC2=C(C(=O)O)N3C(=O)[C@@H](NC(=O)Cn4cnnn4)[C@H]3SC2)s1 [Cefazolin]		bioavailability (administered IV): around 78%
C[C@H]1COc2c(N3CCN(C)CC3)c(F)cc3c(=O)c(C(=O)O)cn1c23 [Levofloxacin]	around 99%	
CC(C)Cc1ccc(C(C)C(=O)O)cc1 (stereo not shown) [Ibuprofen]	58-98%	

Molecule	bioavailability (administered PO)	also measured
CCOc1ccc2ccccc2c1C(=O)N[C@@H]1C(=O)N2[C@@H]1SC(C)(C)[C@@H]2C(=O)O [Nafcillin]	around 50%	
C[C@@H]1C[C@H]2[C@@H]3CCC4=CC(=O)C=C[C@]4(C)[C@@]3(Cl)[C@@H](O)C[C@]2(C)[C@@]1(O)C(=O)CCl [Mometasone]		bioavailability (in vivo, inhaled or intranasal): around 1%
CO[C@H]1/C=C/O[C@@]2(C)Oc3c(C)c(O)c4c(O)c(c(/C=N/N5CCN(C)CC5)c(O)c4c3C2=O)NC(=O)/C(C)=C\C=C\[C@H](C)[C@H](O)[C@@H](C)[C@@H](O)[C@@H](C)[C@H](OC(C)=O)[C@@H]1C [Rifampin]	90-95%	
CC[C@H]1OC(=O)[C@H](C)[C@@H](O[C@H]2C[C@@](C)(OC)[C@@H](O)[C@H](C)O2)[C@H](C)[C@@H](O[C@@H]2O[C@H](C)C[C@H](N(C)C)[C@H]2O)[C@](C)(OC)C[C@@H](C)C(=O)[C@H](C)[C@@H](O)[C@]1(C)O [Clarithromycin]	around 55%	
CCOC(=O)C1=C[C@@H](OC(CC)CC)[C@H](NC(C)=O)[C@@H](N)C1 [Oseltamivir]	around 75%	
CO[C@@]1(NC(=O)Cc2cccs2)C(=O)N2C(C(=O)O)=C(COC(N)=O)CS[C@@H]21 [Cefoxitin]		bioavailability (administered PR): 7-17%
NC12CC3CC(CC(C3)C1)C2 [Amantadine]	around 86%	
NC[C@H]1O[C@H](O[C@H]2[C@H](O)[C@@H](O[C@H]3O[C@H](CO)[C@@H](O)[C@H](N)[C@H]3O)[C@H](N)C[C@@H]2N)[C@H](N)C[C@@H]1O [Tobramycin]		bioavailability (administered as an inhalable): 1-16.6%
CC[C@H]1OC(=O)[C@H](C)[C@@H](O[C@H]2C[C@@](C)(OC)[C@@H](O)[C@H](C)O2)[C@H](C)[C@@H](O[C@@H]2O[C@H](C)C[C@H](N(C)C)[C@H]2O)[C@](C)(O)C[C@@H](C)CN(C)[C@H](C)[C@@H](O)[C@]1(C)O [Azithromycin]	around 38%	
CN(C)c1ccc(O)c2c1C[C@H]1C[C@H]3[C@H](N(C)C)C(O)=C(C(N)=O)C(=O)[C@@]3(O)C(O)=C1C2=O [Minocycline]	around 90%	
CNCC[C@H](Oc1cccc2ccccc12)c1cccs1 [Duloxetine]		bioavailability (in vivo, po): 30-80%
CC(=O)N[C@H]1[C@H]([C@H](O)[C@H](O)CO)OC(C(=O)O)=C[C@@H]1N=C(N)N [Zanamivir]		bioavailability (route not stated): 4-17%
Cc1nnc(C(=O)NC(C)(C)c2nc(C(=O)NCc3ccc(F)cc3)c(O)c(=O)n2C)o1 [Raltegravir]	20-43%	
Nc1nc(O)c2ncn(COC(CO)CO)c2n1 [Ganciclovir]	around 5%	
CN1CCCC(n2nc(Cc3ccc(Cl)cc3)c3ccccc3c2=O)CC1 (stereo not shown) [Azelastine]		bioavailability (administered as a nasal spray): around 40%
Nc1nc2c(ncn2COCCO)c(=O)[nH]1 [Acyclovir]	10-20%	
Cc1ncc2n1-c1ccc(Cl)cc1C(c1ccccc1F)=NC2 [Midazolam]		bioavailability (in vivo, po): around 36%
